Common to all, as to type: cell-based
In one assay the test system is MDA-MB-468. Description: Inhibition of proliferation of MDA-MB-468 cells by test compounds (CellTiter-Glo, 72 h). The following applies: MDA-MB-468, 72 h incubation. How it is done:
3: Test method • (1) Cell plating: first, tumor cells MDA-MB-468 were cultured using a corresponding culture medium, trypsinized, centrifuged, resuspended for counting, adjusted to an appropriate concentration, and then plated on a 384-well plate. • (2) Co-incubation of the compounds and tumor cells: after the cells adhered to the wall, 100 nL of a diluted bioactive substance (test compound) was added to the cell culture plate using ECHO, the final concentration of DMSO in wells of the cell plate was 0.33%, and the incubation was performed in an incubator at 37°C with […] for 72 h. • (3) After the incubation was complete, 30 µL of a CTG reagent (CelltiterGlo kit) was added to each well. The culture was oscillated on a fast oscillator for 2 min, centrifuged at 1,000 rpm for 1 min, and kept away from light at room temperature for 30 min. The chemiluminescence signal value was read using an Envision instrument. • (4) Cell viability detection: IC50 was calculated using GraphPad Prism 8 software, and the IC50 of the compounds was obtained using the following nonlinear fitting formula (see Table 2): • 6. Y=Bottom+(Top-Bottom)/(1+10^((LogIC50-X)*HillSlope)) • 7. […] Table 2 Antiproliferative activity of test compounds on MDA-MB-468
(ATP-based viability assays read luminescence as a measure of living cells.)

For a further assay, the system named is SK-BR-3. Description: Inhibition of proliferation of SK-BR-3 cells by compounds (CellTiter-Glo, 72 h). The following applies: SK-BR-3, 72 h incubation. How it is done: 3: Test method (1) Cell plating: first, tumor cells SK-BR-3 were cultured using a corresponding culture medium, trypsinized, centrifuged, resuspended for counting, adjusted to an appropriate concentration, and then plated on a 384-well plate. (2) Co-incubation of the compounds and tumor cells: after the cells adhered to the wall, 100 nL of a diluted bioactive substance (test compound) was added to the cell culture plate using ECHO, the final concentration of DMSO in wells of the cell plate was 0.33%, and the incubation was performed in an incubator at 37°C with 5% CO2 for 72 h. (3) After the incubation was complete, 30 µL of a CTG reagent (CelltiterGlo kit) was added to each well. The culture was oscillated on a fast oscillator for 2 min, centrifuged at 1,000 rpm for 1 min, and kept away from light at room temperature for 30 min. The chemiluminescence signal value was read using an Envision instrument. (4) Cell viability detection: IC50 was calculated using GraphPad Prism 8 software, and the IC50 of the compounds was obtained using the following nonlinear fitting formula (see Table 1) : 1. Y=Bottom+(Top-Bottom)/(1+10^((LogIC50-X)*HillSlope)) 2. […] Table 1 Antiproliferative activity of test compounds on SK-BR-3

A further assay deals with NCI-N87. Description: Inhibition of proliferation of NCI-N87 cells by test compounds (CellTiter-Glo, 72 h). The following applies: NCI-N87, 72 h incubation. Here is the method:
3: Test method (1) Cell plating: first, tumor cells NCI-N87 were cultured using a corresponding culture medium, trypsinized, centrifuged, resuspended for counting, adjusted to an appropriate concentration, and then plated on a 384-well plate. (2) Co-incubation of the compounds and tumor cells: after the cells adhered to the wall, 100 nL of a diluted bioactive substance (test compound) was added to the cell culture plate using ECHO, the final concentration of DMSO in wells of the cell plate was 0.33%, and the incubation was performed in an incubator at 37°C with […] for 72 h. (3) After the incubation was complete, 30 µL of a CTG reagent (CelltiterGlo kit) was added to each well. The culture was oscillated on a fast oscillator for 2 min, centrifuged at 1,000 rpm for 1 min, and kept away from light at room temperature for 30 min. The chemiluminescence signal value was read using an Envision instrument. (4) Cell viability detection: IC50 was calculated using GraphPad Prism 8 software, and the IC50 of the compounds was obtained using the following nonlinear fitting formula (see Table 3) : 11. Y=Bottom+(Top-Bottom)/(1+10^((LogIC50-X)*HillSlope)) 12. […] Table 3 Antiproliferative activity of test compounds on cells NCI-N87

For orientation: IC50 means the concentration needed to halve the response being measured. Higher therefore signals weaker potency in that assay. As to `CC[C@@]1(O)C(=O)OCc2c1cc1n(c2=O)Cc2c-1nc1cc(F)c(C3CC3)c3c1c2C(NC(=O)C[C@@H](C)O)CC3` (single isomer, unassigned) [17-1], the half-maximal inhibitory concentration (IC50) in the assay with MDA-MB-468 (Homo sapiens, MDA-MB-468, 72 h) is 5.8 nM; with SK-BR-3 (Homo sapiens, SK-BR-3, 72 h), 4.6 nM; in the assay on NCI-N87 (Homo sapiens, NCI-N87, 72 h), 3.6 nM.

With `CC[C@@]1(O)C(=O)OCc2c1cc1n(c2=O)Cc2c-1nc1cc(F)c(C3CC3)c3c1c2C(NC(=O)[C@H]1C[C@@H](O)C1)CC3` (single isomer, unassigned) [18-2], the IC50 was 12 nM in the assay on MDA-MB-468 (Homo sapiens, MDA-MB-468, 72 h); 9.6 nM in the assay with SK-BR-3 (Homo sapiens, SK-BR-3, 72 h); 16.5 nM with NCI-N87 (Homo sapiens, NCI-N87, 72 h).

Turning to `CC[C@@]1(O)C(=O)OCc2c1cc1n(c2=O)Cc2c-1nc1cc(F)c(C3CC3)c3c1c2C(NC(=O)C[C@@H](C)O)CCC3` (single isomer, unassigned) [19-1], the IC50 was 7.1 nM in the assay with MDA-MB-468 (Homo sapiens, MDA-MB-468, 72 h); 8.3 nM in the assay on SK-BR-3 (Homo sapiens, SK-BR-3, 72 h); 7.4 nM with NCI-N87 (Homo sapiens, NCI-N87, 72 h).

Turning to `CC[C@@]1(O)C(=O)OCc2c1cc1n(c2=O)Cc2c-1nc1cc(F)c(C3CC3)c3c1c2C(NC(=O)C[C@@H](C)O)CCC3` (single isomer, unassigned) [19-2], the IC50 with MDA-MB-468 worked out at 6.9 nM; in the assay on SK-BR-3, 7.6 nM; in the assay with NCI-N87 it was 7.4 nM.

With `CC[C@@]1(O)C(=O)OCc2c1cc1n(c2=O)Cc2c-1nc1cc(F)c(C3CC3)c3c1c2C(NC(=O)[C@H]1C[C@@H](O)C1)CCC3` (single isomer, unassigned) [20-1], the IC50 in the assay with MDA-MB-468 (Homo sapiens, MDA-MB-468, 72 h) was found to be 15.6 nM; in the assay with SK-BR-3 (Homo sapiens, SK-BR-3, 72 h), 21 nM; with NCI-N87 (Homo sapiens, NCI-N87, 72 h) it was 26 nM.

For the compound `CC[C@@]1(O)C(=O)OCc2c1cc1n(c2=O)Cc2c-1nc1cc(F)cc3c1c2C(NC(=O)C[C@@H](C)O)CC3` (stereo partly drawn) [4-1, (R)-N-((1S,9S)-9-ethyl-5-fluoro-9-hydroxy-10,13-dioxo-2,3,9,10,13,15-hexahydro-1H,12H-benzo[de]pyrano[3',4',6,7]indolizino[1,2-b]quinolin-1-yl)-3-hydroxybutanamide], the IC50 in the assay on MDA-MB-468 stood at 34 nM; with SK-BR-3, 61 nM.

Turning to `C=Cc1c(F)cc2nc3c(c4c2c1CCC4NC(=O)C[C@@H](C)O)Cn1c-3cc2c(c1=O)COC(=O)[C@]2(O)CC` (stereo partly drawn) [7-1, (R)-N-((1S,9S)-9-ethyl-5-fluoro-9-hydroxy-10,13-dioxo-4-vinyl-2,3,9,10,13,15-hexahydro-1H,12H-benzo[de]pyrano[3',4',6,7]indolizino[1,2-b]quinolin-1-yl)-3-hydroxybutanamide], the IC50 with MDA-MB-468 was determined as 3.1 nM; in the assay with SK-BR-3, 8.6 nM.

Turning to `CC[C@@]1(O)C(=O)OCc2c1cc1n(c2=O)Cc2c-1nc1cc(F)c(OCC(F)(F)F)c3c1c2C(NC(=O)C[C@@H](C)O)CC3` (stereo partly drawn) [8-2, (R)-N-((1R,9S)-9-ethyl-5-fluoro-9-hydroxy-10,13-dioxo-4-(2,2,2-trifluoroethoxy)-2,3,9,10,13,15-hexahydro-1H,12H-benzo[de]pyrano[3',4',6,7]indolizino[1,2-b]quinolin-1-yl)-3-hydroxybutanamide], the IC50 came out at 38 nM in the assay on MDA-MB-468 and 87 nM with SK-BR-3.

For `CC[C@@]1(O)C(=O)OCc2c1cc1n(c2=O)Cc2c-1nc1cc(F)c(C3CC3)c3c1c2C(NC(=O)[C@H]1C[C@@H](O)C1)CC3` (stereo partly drawn) [18-1, (1S,3S)-N-((1R,9S)-4-cyclopropyl-9-ethyl-5-fluoro-9-hydroxy-10,13-dioxo-2,3,9,10,13,15-hexahydro-1H,12H-benzo[d]pyrano[3',4':6,7]indolizino[1,2-b]quinolin-1-yl)-3-hydroxycyclobutane-1-carboxamide], the IC50 with MDA-MB-468 stood at 12 nM.

In turn, `CC[C@@]1(O)C(=O)OCc2c1cc1n(c2=O)Cc2c-1nc1ccc(O)c3c1c2CCC3` [compound 9, (S)-9-ethyl-4,9-dihydroxy-1,2,3,9,12,15-hexahydro-10H,13H-benzopyrano[3',4',6,7]indolizino[1,2-b]quinoline-10,13-dione] displayed an IC50 with NCI-N87 (Homo sapiens, NCI-N87, 72 h) of 3 nM.

On to “(R)-3-cyclopropyl-N-((1S,9S)-4-cyclopropyl-9-ethyl-5-fluoro-9-hydroxy-10,13-dioxo-2,3,9,10,13,15-hexahydro-1H,12H-benzo[d]pyrano[3',4':6,7]indolizino[1,2-b]quinolin-1-yl)-3-hydroxypropanamide [34-2]”, for which the results for the IC50 in the assay with MDA-MB-468 and in the assay on NCI-N87 were 4 nM and 6 nM, respectively.

These data come from patent EP4692091A1, “CA[…], AND PHARMACEUTICAL COMPOSITION, PREPARATION METHOD THEREFOR AND USE THEREOF” (Changchun Genescience Pharmaceutical Co., Ltd., priority 2023, dated 2024).
